Assay [1] has as its system P. aeruginosa ATCC 27853.
The test system of assay [2] is N. gonorrhoeae strain WS1.

Like-named read-outs stand apart in the source and are kept apart here. Where a SMILES comes first, the peptide text is derived from it.

For `CC(C)C[C@H](NC(=O)[C@@H](NC(=O)[C@H](Cc1ccccc1)NC(=O)[C@H](CC(=O)O)NC(=O)[C@H](CCC(=O)O)NC(=O)[C@H](CCCNC(=N)N)NC(=O)[C@@H](NC(=O)[C@H](CC(C)C)NC(=O)[C@H](Cc1ccccc1)NC(=O)CNC(=O)CNC(=O)[C@H](CS)NC(=O)[C@H](CCCNC(=N)N)NC(=O)[C@H](CO)NC(=O)[C@H](CCC(N)=O)NC(=O)CNC(=O)[C@H](C)NC(=O)[C@@H]1CCCN1C(=O)[C@H](CO)NC(=O)[C@@H](N)CCC(N)=O)C(C)C)C(C)C)C(=O)O` [CG 21-40] (H-QSPAGQSRCGGFLVREDFVL-OH), the “Log Kill (500 μg/ml) P. aeruginosa ATCC 27853” value in assay [1] (ATCC 27853, 500) is -0.034 log. Besides, in assay [2] (strain WS1, 500), the “Log Kill (500 μg/ml) N. gonorrhoeae strain WS1” value is given as 0.05 log.
The corresponding values for `CC[C@H](C)[C@H](NC(=O)[C@H](CC(N)=O)NC(=O)[C@H](Cc1c[nH]cn1)NC(=O)[C@H](C)NC(=O)CNC(=O)[C@H](CC(C)C)NC(=O)[C@@H](NC(=O)[C@@H](NC(=O)[C@H](CC(N)=O)NC(=O)[C@@H](NC(=O)[C@H](CC(N)=O)NC(=O)[C@H](CO)NC(=O)CNC(=O)[C@H](Cc1c[nH]c2ccccc12)NC(=O)[C@H](CS)NC(=O)[C@H](Cc1c[nH]cn1)NC(=O)[C@H](C)NC(=O)[C@H](C)NC(=O)[C@@H](N)[C@@H](C)O)[C@@H](C)CC)C(C)C)[C@@H](C)O)C(=O)N[C@@H](CCC(N)=O)C(=O)O` [CG 41-60] (H-TAAHCWGSNINVTLGAHNIQ-OH) are 0.5 log and -0.09 log.
As for `CC[C@H](C)[C@H](NC(=O)[C@H](CC(=O)O)NC(=O)[C@H](CC(N)=O)NC(=O)[C@H](CCC(N)=O)NC(=O)[C@@H](NC(=O)[C@@H](NC(=O)[C@H](CCCNC(=N)N)NC(=O)[C@H](CCC(N)=O)NC(=O)[C@H](CC(N)=O)NC(=O)[C@H](Cc1ccc(O)cc1)NC(=O)[C@H](CCC(N)=O)NC(=O)[C@@H]1CCCN1C(=O)[C@@H](N)Cc1c[nH]cn1)[C@@H](C)O)[C@@H](C)CC)C(=O)N[C@@H](CCSC)C(=O)N[C@@H](CC(C)C)C(=O)N[C@@H](CC(C)C)C(=O)N[C@@H](CCC(N)=O)C(=O)N[C@@H](CC(C)C)C(=O)N[C@@H](CO)C(=O)N[C@@H](CCCNC(=N)N)C(=O)O` [CG 77-96] (H-HPQYNQRTIQNDIMLLQLSR-OH), the “Log Kill (500 μg/ml) P. aeruginosa ATCC 27853” value in assay [1] (ATCC 27853, 500) amounted to 0.06 log. The “Log Kill (500 μg/ml) N. gonorrhoeae strain WS1” value in assay [2] (strain WS1, 500) is given as 0.24 log.
Consider `CC[C@H](C)[C@H](NC(=O)[C@H](CCCNC(=N)N)NC(=O)[C@H](CC(C)C)NC(=O)[C@H](CS)NC(=O)[C@H](CCC(N)=O)NC(=O)[C@H](CCCNC(=N)N)NC(=O)[C@H](CC(=O)O)NC(=O)[C@H](CCCNC(=N)N)NC(=O)[C@H](CCC(N)=O)NC(=O)[C@@H](NC(=O)[C@H](CCCNC(=N)N)NC(=O)[C@H](CC(C)C)NC(=O)[C@H](CCC(N)=O)NC(=O)[C@@H](NC(=O)[C@H](CCC(=O)O)NC(=O)[C@H](CCCNC(=N)N)NC(=O)[C@H](CC(C)C)NC(=O)[C@@H](NC(=O)[C@@H](N)CC(=O)O)[C@@H](C)O)C(C)C)C(C)C)C(=O)N[C@@H](Cc1ccccc1)C(=O)O` [CG 137-156] (H-DTLREVQLRVQRDRQCLRIF-OH), for which, in assay [1] (Table 6, crude peptides 500 μg/ml, about 10^7 CFU/ml, 1/100 strength HBSS), the “Log Kill (500 μg/ml) P. aeruginosa ATCC 27853” value is recorded as 0.01 log. Moreover, the “Log Kill (500 μg/ml) N. gonorrhoeae strain WS1” value in assay [2] (Table 6, crude peptides 500 μg/ml, 1/100 strength HBSS) was 0.43 log.
Take `CC[C@H](C)[C@H](NC(=O)[C@H](CCC(N)=O)NC(=O)[C@H](CCCNC(=N)N)NC(=O)[C@H](CCCNC(=N)N)NC(=O)[C@@H]1CCCN1C(=O)[C@H](CC(=O)O)NC(=O)[C@H](Cc1ccc(O)cc1)NC(=O)[C@H](CO)NC(=O)CN)C(=O)N[C@@H](CS)C(=O)N[C@H](C(=O)NCC(=O)N[C@@H](CC(=O)O)C(=O)N[C@@H](CCCNC(=N)N)C(=O)N[C@@H](CCCNC(=N)N)C(=O)N[C@@H](CCC(=O)O)C(=O)N[C@@H](CCCNC(=N)N)C(=O)N[C@@H](CCCCN)C(=O)N[C@@H](C)C(=O)N[C@@H](C)C(=O)O)C(C)C` [CG 157-176] (H-GSYDPRRQICVGDRRERKAA-OH): the “Log Kill (500 μg/ml) P. aeruginosa ATCC 27853” value in assay [1] (ATCC 27853, 500) is 1.02 log. Further, in assay [2] (strain WS1, 500), the “Log Kill (500 μg/ml) N. gonorrhoeae strain WS1” value was -0.18 log.

These data come from US5798336A, “Antimicrobial peptides” (priority 1995, dated 1998).
